We go through two molecules from ChEMBL document CHEMBL5034026, “Design, synthesis and evaluation of 2'-acetylene-7-deaza-adenosine phosphoamidate derivatives as anti-EV71 and anti-EV-D68 agents” (Eur J Med Chem, 2021).

Data set [1] is described as follows: Selectivity index, ratio of CC50 for human RD cells to IC50 for Enterovirus D68 infected in human RD cells. It is filed as toxicity, cell-based. The settings on record: read-out: Selectivity Index.
A further data set deals with Enterovirus A71. Put plainly: Antiviral activity against Enterovirus A71 infected in human RD cells assessed as inhibition of viral replication measured after 4 days by Cell Titer-Glo luminescent cell viability assay. It counts as functional, organism-based. The following applies: Enterovirus A, 96 h.
A short description of data set [2]: AUC ( 0 to last) in CD-1 mouse at 5 mg/kg, iv by LC-MS/MS. It counts as ADME, organism-based. More on the design: time 0 - last, route intravenous, dose 5 mg/kg. The following applies: in vivo.
The nature of data set [3]: Half life in CD-1 mouse at 25 mg/kg, po by LC-MS/MS. It is filed as ADME, organism-based. The following applies: in vivo.
A short description of data set [4]: Tmax in CD-1 mouse at 25 mg/kg, po by LC-MS/MS. It is filed as ADME, organism-based. The following applies: in vivo.
Data set [5] is described as follows: AUC ( 0 to infinity ) in CD-1 mouse at 5 mg/kg, iv by LC-MS/MS. It counts as ADME, organism-based. More on the design: route intravenous, time infinity, dose 5 mg/kg. The settings on record: in vivo.
The nature of data set [6]: Cmax in CD-1 mouse at 25 mg/kg, po by LC-MS/MS. It is filed as ADME, organism-based. More on the design: route oral, dose 25 mg/kg. The following applies: in vivo.
A short description of data set [7]: Selectivity index, ratio of CC50 for human RD cells to IC50 for Enterovirus A71 infected in human RD cells. It is filed as toxicity, cell-based. The following applies: read-out: Selectivity Index.
A further data set deals with RD. Put plainly: (§1) Cytotoxicity against human RD cells assessed as reduction in cell viability by Cell Titer-Glo luminescent cell viability assay. It counts as cell-based. The settings on record: rd.
Data set [8] in a line: Tmax in CD-1 mouse at 5 mg/kg, iv by LC-MS/MS. It counts as ADME, organism-based. The settings on record: in vivo.
Data set [9] is described as follows: Half life in CD-1 mouse at 5 mg/kg, iv by LC-MS/MS. It counts as ADME, organism-based. The settings on record: in vivo.
The nature of data set [10]: AUC ( 0 to infinity ) in CD-1 mouse at 25 mg/kg, po by LC-MS/MS. It counts as ADME, organism-based. More on the design: time infinity, route oral, dose 25 mg/kg. The following applies: in vivo.
The next data set concerns enterovirus D68. Put plainly: Antiviral activity against Enterovirus D68 infected in human RD cells assessed as inhibition of viral replication measured after 4 days by Cell Titer-Glo luminescent cell viability assay. It is filed as functional, organism-based. The settings on record: Enterovirus D, 96 h.
Data set [11] is described as follows: Cmax in CD-1 mouse at 5 mg/kg, iv by LC-MS/MS. More on the design: route intravenous, dose 5 mg/kg. It counts as ADME, organism-based. The settings on record: in vivo.
The nature of data set [12]: AUC ( 0 to last) in CD-1 mouse at 25 mg/kg, po by LC-MS/MS. It is filed as ADME, organism-based. More on the design: time 0 - last, route oral, dose 25 mg/kg. The settings on record: in vivo.
Data set [13] in a line: Cmax in CD-1 mouse assessed as parent NITD008 level at 25 mg/kg, po by LC-MS/MS analysis. It is filed as ADME, organism-based. The following applies: in vivo. More on the design: route oral, dose 25 mg/kg.
A short description of data set [14]: as §1. It counts as cell-based. The following applies: RD cells.
A short description of data set [15]: AUCinf in CD-1 mouse assessed as parent NITD008 level at 5 mg/kg, iv by LC-MS/MS analysis. It counts as ADME, organism-based. More on the design: route intravenous, time infinity, dose 5 mg/kg. The following applies: in vivo.
Data set [16] in a line: AUClast in CD-1 mouse assessed as parent NITD008 level at 5 mg/kg, iv by LC-MS/MS analysis. More on the design: route intravenous, time 0 - last, dose 5 mg/kg. The settings on record: in vivo. It counts as ADME, organism-based.
Data set [17] is described as follows: Tmax in CD-1 mouse assessed as parent NITD008 level at 25 mg/kg, po by LC-MS/MS analysis. It counts as ADME, organism-based. The following applies: in vivo.
Data set [18] is described as follows: Tmax in CD-1 mouse assessed as parent NITD008 level at 5 mg/kg, iv by LC-MS/MS analysis. It is filed as ADME, organism-based. The following applies: in vivo.
Data set [19] can be described thus: Cmax in CD-1 mouse assessed as parent NITD008 level at 5 mg/kg, iv by LC-MS/MS analysis. It counts as ADME, organism-based. More on the design: route intravenous, dose 5 mg/kg. The following applies: in vivo.
Data set [20] can be described thus: Half life in CD-1 mouse assessed as parent NITD008 level at 25 mg/kg, po by LC-MS/MS analysis. It is filed as ADME, organism-based. The following applies: in vivo.
The nature of data set [21]: AUClast in CD-1 mouse assessed as parent NITD008 level at 25 mg/kg, po by LC-MS/MS analysis. It is filed as ADME, organism-based. More on the design: route oral, time 0 - last, dose 25 mg/kg. The settings on record: in vivo.
The nature of data set [22]: AUCinf in CD-1 mouse assessed as parent NITD008 level at 25 mg/kg, po by LC-MS/MS analysis. It counts as ADME, organism-based. More on the design: route oral, time infinity, dose 25 mg/kg. The following applies: in vivo.
The nature of data set [23]: Half life in CD-1 mouse assessed as parent NITD008 level at 5 mg/kg, iv by LC-MS/MS analysis. It is filed as ADME, organism-based. The settings on record: in vivo.

Molecules are shown by their SMILES.

As for `C#C[C@@]1(O)[C@H](O)[C@@H](CO)O[C@H]1n1ccc2c(N)ncnc21`, the selectivity ratio is greater than 87.1 in data set [1] and greater than 36.2 in [7]. The IC50 with Enterovirus A71 was found to be 550 nM; in the data set on enterovirus D68, 230 nM. In addition, the AUC(0-t) came out at 1970 ng·h/mL in [2] and 2700 ng·h/mL in data set [12]. Moreover, the figures for the half-life in data set [3] and in [9] were 5.09 h and 9.1 h, respectively. Also, the Tmax was 0.83 h in data set [4] and 1.98 min in data set [8]. In addition, the figures for the AUC(0-inf) in data set [5] and in data set [10] were 2080 ng·h/mL and 2790 ng·h/mL, respectively. The figures for the Cmax in data set [6] and in [11] were 579 ng/mL and 6760 ng/mL, respectively. Further, the CC50 in the data set on RD was greater than 20000 nM.
For `C#C[C@@]1(O)[C@H](O)[C@@H](COP(=O)(N[C@@H](C)C(=O)OCC(C)(C)C)Oc2ccccc2)O[C@H]1n1ccc2c(N)ncnc21` (stereo not given in full), the results for the selectivity ratio in data set [1] and in data set [7] were 57.1 and 77.5, respectively. Besides, the Cmax is 165 ng/mL in data set [13] and 1983 ng/mL in [19]. The IC50 in the data set with Enterovirus A71 worked out at 390 nM; with enterovirus D68, 530 nM. Further, in data set [14], the CC50 stood at 30200 nM. For the same molecule, the values for the AUC in data set [15] and in data set [22] were 833 ng·h/mL and 744 ng·h/mL, respectively. Also, the AUClast in [16] is 800 ng·h/mL; in data set [21], 722 ng·h/mL. For the same molecule, the Tmax in data set [17] was determined as 0.83 h; in [18] it was 1.98 min. Also, the t1/2 in data set [20] was 4.97 h; in data set [23], 3.3 h.
